Test results published in patent US7585460B2, “Method for inhibiting the biological acidification of water in contact with materials containing sulfur” (ENI S.p.A., priority 2003, dated 2009).

Test system: Thiobacilli
Test: Acidification of rainwater in contact with solid sulfur test samples colonized by Thiobacilli (Example 5)
Assay type: cell-based, Thiobacillus
Conditions: 33 g/l NaCl
Experimental: The following experimental systems were prepared, using test samples of solid sulfur (discoid tables each of about 13 g). • System A: Containing 2 test samples not colonized by microbial cells, placed on the bottom of the container, completely immersed in rainwater (sterilized at a low temperature by micro-filtration); • System A1: Containing two non-colonized test samples, only dampened—by means of a sprayer—with rainwater sterilized by micro-filtration. • System B: Containing 2 colonized test samples (previously immersed in a suspension of 10^8 cells/ml of Thiobacilli and left to dry in the air), placed on the bottom of the container, entirely immersed in micro-filtered rainwater; • System B1: Containing two colonized test samples as per the previous system, only dampened with rainwater sterilized by micro-filtration; • System C: Containing 2 colonized test samples entirely immersed in micro-filtered rainwater, in which 33 g/l of Nacl are dissolved; • System C1: containing 2 colonized test samples only dampened with rainwater sterilized by micro-filtration and containing 33 g/l of NaCl.
The pH variation measurements during 48 days of experimentation are represented in Table 4.

SMILES: [Cl-].[Na+] [NaCl, Sodium Chloride]
- pH values in the systems (System C1: colonized samples only dampened with rainwater, day 0): 6.0
- pH values in the systems (System C1: colonized samples only dampened with rainwater, day 3): 5.8
- pH values in the systems (System C1: colonized samples only dampened with rainwater, day 5): 5.8
- pH values in the systems (System C1: colonized samples only dampened with rainwater, day 7): 5.8
- pH values in the systems (System C1: colonized samples only dampened with rainwater, day 10): 5.8
- pH values in the systems (System C1: colonized samples only dampened with rainwater, day 12): 5.8
- pH values in the systems (System C1: colonized samples only dampened with rainwater, day 15): 5.8
- pH values in the systems (System C1: colonized samples only dampened with rainwater, day 21): 5.8
- pH values in the systems (System C1: colonized samples only dampened with rainwater, day 29): 5.8
- pH values in the systems (System C1: colonized samples only dampened with rainwater, day 32): 5.8
- pH values in the systems (System C1: colonized samples only dampened with rainwater, day 35): 5.8
- pH values in the systems (System C1: colonized samples only dampened with rainwater, day 38): 5.8
- pH values in the systems (System C1: colonized samples only dampened with rainwater, day 42): 5.8
- pH values in the systems (System C1: colonized samples only dampened with rainwater, day 46): 5.8
- pH values in the systems (System C1: colonized samples only dampened with rainwater, day 48): 5.8
- pH values in the systems (System C: colonized samples immersed in rainwater, day 0): 6.0
- pH values in the systems (System C: colonized samples immersed in rainwater, day 3): 6.0
- pH values in the systems (System C: colonized samples immersed in rainwater, day 5): 6.0
- pH values in the systems (System C: colonized samples immersed in rainwater, day 7): 5.8
- pH values in the systems (System C: colonized samples immersed in rainwater, day 10): 5.8
- pH values in the systems (System C: colonized samples immersed in rainwater, day 12): 5.8
- pH values in the systems (System C: colonized samples immersed in rainwater, day 15): 5.8
- pH values in the systems (System C: colonized samples immersed in rainwater, day 21): 5.8
- pH values in the systems (System C: colonized samples immersed in rainwater, day 29): 5.8
- pH values in the systems (System C: colonized samples immersed in rainwater, day 32): 5.8
- pH values in the systems (System C: colonized samples immersed in rainwater, day 35): 5.8
- pH values in the systems (System C: colonized samples immersed in rainwater, day 38): 5.8
- pH values in the systems (System C: colonized samples immersed in rainwater, day 42): 5.8
- pH values in the systems (System C: colonized samples immersed in rainwater, day 46): 5.8
- pH values in the systems (System C: colonized samples immersed in rainwater, day 48): 5.8
